Values joined by “and” are separate entries in the source; they are usually repeats but may differ in a detail not shown here. Equal values may be shown once.
Columns and labels:
[1] = wn = mass fraction of the nth substance listed; details: 102 kPa, Liquid, Vibrating tube method
[2] = Liquid; for mass density: Vibrating tube method

CCCCCCCCCCCC(=O)OCC(COC(=O)CCCCCCCCCCC)OC(=O)CCCCCCCCCCC [1,2,3-propanetriyl tridodecanoate] + CCCCCCCCO
mass density [kg/m3], [1]
Details	293.15 K	298.15 K	303.15 K	313.15 K	333.15 K	353.15 K
w1 = 0.019	826.7	823.3	819.7	812.8	798.7	784
w1 = 0.051	829.5	826.2	822.5	815.6	801.5	786.8
w1 = 0.096	–	–	826.8	819.7	805.6	790.9
w1 = 0.149	–	–	831	824	809.9	795.2
w1 = 1	–	–	905.1	899.6	886.9	870.4

CCCCCCCCCC(=O)OCC(COC(=O)CCCCCCCCC)OC(=O)CCCCCCCCC [1,2,3-propanetriyl tridecanoate]
[2]
Details	mass density [kg/m3]	vapor or sublimation pressure
293.15 K, 102 kPa	921.6	–
298.15 K, 102 kPa	917.9	–
303.15 K, 102 kPa	913.6	–
313.15 K, 102 kPa	906.2	–
333.15 K, 102 kPa	891	–
348.5 K, Langmuir technique	–	1.39e-08 kPa and 1.36e-08 kPa
353.15 K, 102 kPa	875.9	–
353.48 K, Langmuir technique	–	2.94e-08 kPa and 2.9e-08 kPa
358.38 K, Langmuir technique	–	5.99e-08 kPa
363.18 K, Langmuir technique	–	1.19e-07 kPa and 1.2e-07 kPa
367.8 K, Langmuir technique	–	2.27e-07 kPa
367.81 K, Langmuir technique	–	2.23e-07 kPa

CCCCCCCCCC(=O)OCC(COC(=O)CCCCCCCCC)OC(=O)CCCCCCCCC [1,2,3-propanetriyl tridecanoate] + CCCCCCCCO
mass density [kg/m3], [1]
Details	293.15 K	298.15 K	303.15 K	313.15 K	333.15 K	353.15 K
w1 = 0.016	826.5	823.1	819.5	812.6	798.6	783.8
w1 = 0.0385	828.7	825.1	821.6	814.7	800.7	785.9
w1 = 0.0772	832.5	829	825.4	818.5	804.3	789.5
w1 = 0.1287	837.4	833.9	830.3	823.3	809.1	794.4
w1 = 1	921.6	917.9	913.6	906.2	891	875.9

CCCCCCCCCCCC(=O)OCC(COC(=O)CCCCCCCCCCC)OC(=O)CCCCCCCCCCC [1,2,3-propanetriyl tridodecanoate]
[2], 100 kPa
Details	mass density [kg/m3]
303.15 K	905.1
313.15 K	899.6
333.15 K	886.9
353.15 K	870.4

CCCCCCCC(=O)OCC(COC(=O)CCCCCCC)OC(=O)CCCCCCC [1,2,3-propanetriol trioctanoate]
[2]
Details	mass density [kg/m3]	vapor or sublimation pressure [kPa]
293.15 K, 102 kPa	952.7	–
298.15 K, 102 kPa	948.9	–
298.15 K, 120 kPa	949.9	–
298.15 K, 9830 kPa	955.5	–
298.15 K, 20100 kPa	961.3	–
298.15 K, 30020 kPa	966.6	–
298.15 K, 40050 kPa	971.9	–
298.15 K, 50040 kPa	977.1	–
303.15 K, 102 kPa	944.9	–
313.15 K, 102 kPa	937.4	–
333.15 K, 102 kPa	922.5	–
353.15 K, 102 kPa	907.7	–
403.2 K, Transpiration method	–	0.0002069
408.2 K, Transpiration method	–	0.0003133
413.2 K, Transpiration method	–	0.0004698
423.2 K, Transpiration method	–	0.001006
433.2 K, Transpiration method	–	0.001977
443.2 K, Transpiration method	–	0.004016
448.2 K, Transpiration method	–	0.005491

From the NIST ThermoML archive (doi:10.1021/acs.jced.8b01046)
